Like-named read-outs stand apart in the source and are kept apart here.
Assays:
[1] = biological target: T1, HIV-1 RT double mutant K103N/Y181C (Human immunodeficiency virus type 1 group M subtype B, UniProt P03366, K702N/Y780C); assay: biochemical
T1 construct: HIV-1 wild type reverse transcriptase as well as the clinically significant double mutant K103N/Y181C
Description: (§1) Utilizing the Reverse Transcriptase (RT) Assay described below, compounds were tested for their ability to inhibit the RNA-dependent DNA polymerase activity of HIV-1 RT. Certain specific compounds described in the Examples and in Tables 1-4, were so tested. The results of this testing appear in Table 5 as ranges of IC50 (nM) and EC50 (nM).
(§2) Reverse Transcriptase (RT) Assays

[2] = biological target: T2, HIV-1 wild type reverse transcriptase (Human immunodeficiency virus type 1 group M subtype B, UniProt P03366); assay: biochemical
T2 construct: HIV-1 wild type reverse transcriptase
Description: as §1, §2

[3] = tested on: HIV-1 wild type; assay: microbe, parasite or virus in culture; format: cell-based
[4] = tested on: HIV-1 double mutant K103N/Y181C; assay: microbe, parasite or virus in culture; format: cell-based
[5] = RT double mutant K103N/Y181C, read-out: IC50 K103N/Y181C
[6] = wild type RT, read-out: IC50 WT RT
[7] = wild type, read-out: EC50 WT RT
[8] = double mutant K103N/Y181C, read-out: EC50 K103N/Y181C
[9] = Human immunodeficiency virus 1, wild type, read-out: EC50 WT RT
[10] = Human immunodeficiency virus 1, read-out: EC50 K103N/Y181C (nM)
[11] = Human immunodeficiency virus 1, read-out: EC50 WT RT (nM)

Compound	IC50 [1, 5] [nM]	IC50 [2, 6] [nM]	EC50 [4, 8] [nM]	IC50 [1] [nM]	EC50 [4, 10] [nM]	further results
CCN1c2ncc(CCOc3ccc(C(=O)Nc4ccc(C(=O)O)cc4)cc3C)cc2C(=O)Nc2c(C)ccnc21 [Entry 3017]	< 50	< 50	> 50	–	–	EC50 [3, 7]: 10 to 50 nM
CCN1c2ncc(CCOc3ccc(NC(=O)NCC(=O)O)cc3C)cc2C(=O)N(C)c2cccnc21 [Entry 4004]	–	< 50	–	> 100	–	EC50 [3, 9]: 10 to 50 nM
CCN1c2ncc(CCOc3ccc(-c4ccc(C(=O)O)cc4)cc3C)cc2C(=O)N(C)c2cccnc21 [Entry 1003]	< 50	< 50	< 10	–	–	EC50 [3, 7]: < 10 nM
CCN1c2ncc(CCOc3ccc(-c4ccc(C(=O)O)cc4)c(C)c3)cc2C(=O)N(C)c2cccnc21 [Entry 1005]	> 100	< 50	> 50	–	–	EC50 [3, 7]: 10 to 50 nM
CCN1c2ncc(CCOc3ccc(NC(=O)/C=C/C(=O)O)cc3C)cc2C(=O)N(C)c2cccnc21 [Entry 4010]	–	< 50	–	50 to 100	–	EC50 [3, 9]: > 50 nM
CCN1c2ncc(CCOc3ccc(C(=O)NNCC(=O)O)cc3C)cc2C(=O)N(C)c2cccnc21 [Entry 4015]	–	< 50	–	> 100	–	EC50 [3, 9]: 10 to 50 nM
CCN1c2ncc(CCOc3ccc(C(=O)NS(C)(=O)=O)cc3C)cc2C(=O)N(C)c2cccnc21 [Entry 4013, 4-[2-(11-Ethyl-6,11-dihydro-5-methyl-6-oxo-5H-dipyrido[3,2-b:2′,3′-e][1,4]diazepin-8-yl)ethoxy]-3-methyl-N-(methylsulfonyl)benzamide]	–	< 50	–	> 100	> 50	EC50 [3, 9]: 10 to 50 nM
CCN1c2ncc(CCOc3ccc(NC(=O)c4ccc(C(=O)O)cc4)cc3C)cc2C(=O)N(C)c2cccnc21 [Entry 3032]	–	< 50	–	< 50	> 50	EC50 [3, 11]: 10 to 50 nM
CCN1c2ncc(CCOc3ccc(NC(=O)c4ccccc4C(=O)O)cc3C)cc2C(=O)N(C)c2cccnc21 [Entry 3033]	–	< 50	–	> 100	10 to 50	EC50 [3, 11]: < 10 nM
CCN1c2ncc(CCOc3ccc(Nc4nc(C(=O)O)cs4)cc3C)cc2C(=O)N(C)c2cccnc21 [Entry 3026]	–	–	–	50 to 100	10 to 50	EC50 [3, 9]: < 10 nM
CCN1c2ncc(CCOc3ccc(-c4cc(CC(=O)O)ccc4C)cc3C)cc2C(=O)N(C)c2cccnc21 [Entry 1036]	50 to 100	< 50	10 to 50	–	–	–
CCN1c2ncc(CCOc3ccc(C(=O)Nc4ccc(CC(=O)O)cc4)cc3C)cc2C(=O)Nc2c(C)ccnc21 [Entry 3018]	–	< 50	–	< 50	> 50	EC50 [3, 11]: 10 to 50 nM
CCN1c2ncc(CCOc3ccc(C(=O)Nc4cc[n+]([O-])cc4)cc3C)cc2C(=O)N(C)c2cccnc21 [Entry 3004, 4-[2-(11-Ethyl-6,11-dihydro-5-methyl-6-oxo-5H-dipyrido[3,2-b:2′,3′-e][1,4]diazepin-8-yl)ethoxy]-3-methyl-N-(1-oxido-4-pyridinyl)benzamide]	–	< 50	–	< 50	< 10	EC50 [3, 9]: < 10 nM
CCN1c2ncc(CCOc3ccc(-c4ccc(CC(=O)O)cc4)cc3)cc2C(=O)N(C)c2cccnc21 [Entry 1007]	50 to 100	< 50	> 50	–	–	EC50 [3, 7]: 10 to 50 nM
CCN1c2ncc(CCOc3ccc(C(=O)c4ccc(C(=O)O)cc4)cc3C)cc2C(=O)N(C)c2cccnc21 [Entry 3027]	–	< 50	–	50 to 100	10 to 50	EC50 [3, 11]: < 10 nM
CCN1c2ncc(CCOc3ccc(C(=O)NCC4(C(=O)O)CCCC4)cc3C)cc2C(=O)N(C)c2cccnc21 [Entry 4018]	–	< 50	–	> 100	10 to 50	EC50 [3, 9]: < 10 nM
CCN1c2ncc(CCOc3ccc(S(=O)(=O)c4cccc(CC(=O)O)c4)cc3C)cc2C(=O)N(C)c2cccnc21 [Entry 3029]	–	–	–	< 50	> 50	–
CCN1c2ncc(CCOc3ccc(-c4ccc(C(=O)O)cc4)c(Cl)c3)cc2C(=O)N(C)c2cccnc21 [Entry 1006]	50 to 100	< 50	> 50	–	–	EC50 [3, 7]: 10 to 50 nM
CCN1c2ncc(CCOc3ccc(-c4cc(C(=O)O)c(C)o4)cc3)cc2C(=O)N(C)c2cccnc21 [Entry 1047, 5-{4-[2-(11-Ethyl-6,11-dihydro-5-methyl-6-oxo-5H-dipyrido[3,2-b:2′,3′-e][1,4]diazepin-8-yl)ethoxy]phenyl}-2-methyl-3-furanecarboxylic acid]	–	< 50	–	> 100	> 50	EC50 [3, 9]: 10 to 50 nM
CCN1c2ncc(CCOc3ccc(C(=O)Nc4cccn(CC(=O)O)c4=O)cc3C)cc2C(=O)N(C)c2cccnc21 [Entry 3012]	–	< 50	–	50 to 100	> 50	EC50 [3, 9]: > 50 nM
CCN1c2ncc(CCOc3ccc(-c4ccc(C(=O)O)cc4)cc3)cc2C(=O)N(C)c2ccc(Cl)nc21 [Entry 1002]	< 50	< 50	–	–	–	EC50 [3, 7]: < 10 nM

Compound	IC50 [1, 5] [nM]	IC50 [2, 6] [nM]	EC50 [4, 8] [nM]	IC50 [1] [nM]	EC50 [4, 10] [nM]	further results
CCN1c2ncc(CCOc3ccc(S(=O)(=O)c4ccc(C(=O)O)cc4)cc3C)cc2C(=O)N(C)c2cccnc21 [Entry 3028]	–	< 50	–	< 50	> 50	–
CCN1c2ncc(CCOc3ccc(-c4ccc(CC(=O)O)cc4F)cc3C)cc2C(=O)N(C)c2cccnc21 [Entry 1024]	< 50	< 50	10 to 50	–	–	–
CCN1c2ncc(CCOc3ccc(-c4ccc(CC(=O)O)cc4OC)cc3C)cc2C(=O)N(C)c2cccnc21 [Entry 1026]	< 50	< 50	10 to 50	–	–	–
CCN1c2ncc(CCOc3ccc(S(=O)(=O)c4ccncc4)cc3C)cc2C(=O)N(C)c2cccnc21 [Entry 3037]	–	–	–	< 50	< 10	–
CCN1c2ncc(CCOc3ccc(-c4ncc[nH]4)cc3C)cc2C(=O)N(C)c2cccnc21 [Entry 1096, 11-Ethyl-5,11-dihydro-8-{2-[4-(1H-imidazol-2-yl)-2-methylphenoxy]ethyl}-5-methyl-6H-dipyrido[3,2-b:2′,3′-e][1,4]diazepin-6-one]	–	< 50	–	< 50	< 10	–
CCN1c2ncc(CCOc3ccc(-c4cc(C(=O)O)ccc4C)cc3C)cc2C(=O)N(C)c2cccnc21 [Entry 1028]	> 100	< 50	10 to 50	–	–	–
CCN1c2ncc(CCOc3ccc(C(=O)Nc4ccc(C(=O)O)cn4)cc3C)cc2C(=O)N(C)c2cccnc21 [Entry 3014]	–	–	–	< 50	10 to 50	IC50 [2]: < 50 nM
CCN1c2ncc(CCOc3ccc(-c4ccc(C(C)C(=O)O)cc4)cc3C)cc2C(=O)N(C)c2cccnc21 (stereo not shown) [Entry 1010]	< 50	< 50	10 to 50	–	–	–
CCN1c2ncc(CCOc3ccc(-c4cc[n+](C)cc4)cc3C)cc2C(=O)N(C)c2cccnc21 [Entry 1089]	< 50	–	< 10	–	–	–
CCN1c2ncc(CCOc3ccc(-c4cccnc4)cc3C)cc2C(=O)N(C)c2cccnc21 [Entry 1067]	< 50	–	< 10	–	–	IC50 ([2]; read-out: IC50 WT RT): < 50 nM
CCN1c2ncc(CCOc3ccc(C(=O)N4CCC(C(=O)O)CC4)cc3C)cc2C(=O)N(C)c2cccnc21 [Entry 3008]	–	< 50	–	50 to 100	–	EC50 [3, 9]: 10 to 50 nM
CCN1c2ncc(CCOc3ccc(-c4nccn4C)cc3C)cc2C(=O)N(C)c2cccnc21 [Entry 1097, 11-Ethyl-5,11-dihydro-5-methyl-8-{2-[2-methyl-4-(1-methyl-1H-imidazol-2-yl)phenoxy]ethyl}-6H-dipyrido[3,2-b:2′,3′-e][1,4]diazepin-6-one]	–	< 50	–	50 to 100	10 to 50	–
CCN1c2ncc(CCOc3ccc(Nc4ccccn4)cc3C)cc2C(=O)N(C)c2cccnc21 [Entry 3036]	–	–	–	< 50	< 10	–
CCN1c2ncccc2NC(=O)c2cc(CCOc3ccc(-c4ccc[n+]([O-])c4)cc3C)cnc21 [Entry 1100]	–	< 50	10 to 50	–	–	EC50 [3, 7]: < 10 nM
CCN1c2ncc(CCOc3ccc(-c4ccc(CC(=O)O)cc4)cc3C)cc2C(=O)Nc2c(C)ccnc21 [Entry 1009]	< 50	< 50	–	–	–	EC50 [3, 7]: 10 to 50 nM
CCN1c2ncc(CCOc3ccc(C(=O)N(C)c4ccc(C(=O)O)cc4)cc3C)cc2C(=O)N(C)c2cccnc21 [Entry 3016]	–	< 50	–	50 to 100	10 to 50	–
CCN1c2ncc(CCOc3ccc(-c4cc(CC(=O)O)ccc4OC)cc3C)cc2C(=O)N(C)c2cccnc21 [Entry 1037]	50 to 100	< 50	10 to 50	–	–	–
CCN1c2ncc(CCOc3ccc(-c4ccc(O)c(C(=O)O)c4)cc3C)cc2C(=O)N(C)c2cccnc21 [Entry 1033]	50 to 100	< 50	> 50	–	–	–
CCN1c2ncc(CCOc3ccc(-c4ccc(Cl)c(C(=O)O)c4)cc3C)cc2C(=O)N(C)c2cccnc21 [Entry 1032]	50 to 100	< 50	10 to 50	–	–	–
CCN1c2ncc(CCOc3ccc(-c4ccc(Cl)c(CC(=O)O)c4)cc3C)cc2C(=O)N(C)c2cccnc21 [Entry 1038]	< 50	< 50	10 to 50	–	–	–
CCN1c2ncc(CCOc3ccc(-c4ccc(CC(=O)O)c(C)c4)cc3C)cc2C(=O)N(C)c2cccnc21 [Entry 1021]	< 50	< 50	10 to 50	–	–	–
